# Laboratory results: patent US11827917B1, “Methods for the conversion of fermentable sugars to ethanol” (Colorado State University Research Foundation, priority 2020, dated 2023)
# Marks after values point to notes of the source that are not given here.
# Columns and labels:
# Assay type in all cases: cell-based, Saccharomyces cerevisiae
# S. cerevisiae JAY 270 = assay: Serum-bottle cultivation in YPD: biomass, glycerol, ethanol yields
# Experimental: Procedure: Cultivations in serum bottles were used to determine the effect of the best-performing screened chemicals on the ethanol yield. S. cerevisiae JAY 270 was pre-cultured in 100 mL of YPD medium in 200-mL serum bottles overnight in a shaker at 30° C. and 200 rpm. The precultured yeast cells were collected and washed twice as described above. The cell pellet was resuspended in about 10 mL of 0.8% (w/v) NaCl and the cell concentration was estimated as OD600. TyrOH, PheOH, and TrpOH were added to 30 mL of YPD medium in 100-mL serum bottles at 0.05% and 0.2% respectively. The same amount of DMSO was added to YPD medium to serve as the control for TrpOH and TyrOH treatments. The bottles were inoculated with the prepared yeast cells to obtain an initial cell concentration of OD600=0.2. The serum bottles were sealed and cultured in a shaker at 30° C. and 200 rpm for 24 h. Each condition had three biological replicates.
# (§1) Analytical methods: Cell growth was evaluated by monitoring OD600 and cell dry mass concentration. For dry mass measurements, 1.0 mL of culture was transferred to a pre-dried and pre-weighed 2-mL centrifuge tube. The tubes were centrifuged for 10 min at 14000 rpm using a microcentrifuge, and then the cell pellets were dried in an oven for 3 days at 65° C. The cell dry mass was determined by subtracting the initial tube mass from the dried mass of tube with cells. The concentrations of glucose, ethanol, and glycerol were measured via HPLC (Shimadzu LC20A series) outfitted with a refractive index detector and using an Aminex HPX-87H (300×7.8 mm) organic acid column and Cation H+ guard cartridge (Bio Rad Laboratories, Hercules, CA). The column was maintained at 65° C. and the mobile phase was 5 mM sulfuric acid with a flow rate of 0.6 mL/min. Standard compound solutions were used to calibrate the HPLC. Each sample was analyzed three times by HPLC.
# S. cerevisiae ATCC 26603 = assay: Serum-bottle cultivation in YPD, different yeast strains; settings: 0.2%
# Experimental: as §1
# (§2) Procedure: Seven yeast strains (S. cerevisiae ATCC 26603, S. cerevisiae JAY 238, S. cerevisiae JAY 240, S. cerevisiae JAY 241, S. paradoxus JAY 1502, S. kudriavzezii JAY 1503, and S. mikatae JAY 1504) were pre-cultured in 30 mL of YPD medium in 100 mL serum bottle overnight in a shaker at 30° C. and 200 rpm. The precultured yeast cells of each strains were collected and washed twice. Finally, the cell pellet was resuspended in about 10 mL 0.8% (w/v) NaCl and the OD600 measured. TyrOH, PheOH, and TrpOH were added to 30 mL of YPD medium in 100-mL serum bottles at 0.2% (w/v) respectively. The same amount of DMSO was added in YPD medium and served as control to the TrpOH and TyrOH treatments. The prepared yeast cells were added to obtain the initial cell concentration at OD600=0.2. The serum bottles were sealed and cultured in a shaker at 30° C. and 200 rpm for 24 h. There were three biological replicates for each treatment.
# S. cerevisiae JAY 238 = assay: as above; settings: 0.2%
# Experimental: as §1, §2
# S. cerevisiae JAY 240 = assay: as above; settings: 0.2%
# Experimental: as §1, §2
# S. cerevisiae JAY 241 = assay: as above; settings: 0.2%
# Experimental: as §1, §2
# [1] = 0.05% (w/v), YPD, serum bottles
# [2] = S. cerevisiae ATCC 26603, YPD (Table 9B)
# [3] = S. cerevisiae JAY 238, YPD (Table 9B)
# [4] = S. cerevisiae JAY 240, YPD (Table 9B)
# [5] = S. cerevisiae JAY 241, YPD (Table 9B)
smiles,measurement,setting,value
"OCCc1c[nH]c2ccccc12 [TrpOH, tryptophol]",Biomass Yield,S. cerevisiae JAY 270; [1],0.078 + 0.001 g/g
same,Biomass yield % change vs. control,S. cerevisiae JAY 270; [1],−22* %
same,EtOH yield,S. cerevisiae JAY 270; [1],0.41 ± 0.01 g/g
same,EtOH yield % change vs. control,S. cerevisiae JAY 270; [1],7.9* %
same,Glycerol yield,S. cerevisiae JAY 270; [1],0.027 ± 0.001 g/g
same,Glycerol yield % change vs. control,S. cerevisiae JAY 270; [1],−20* %
same,Biomass yield vs. reference,"S. cerevisiae JAY 270; 0.05%, YPD, serum bottles",−22.0%
same,Ethanol yield,"S. cerevisiae JAY 270; 0.05%, YPD, serum bottles",0.41 ± 0.01 g/g
same,Ethanol yield vs. reference,"S. cerevisiae JAY 270; 0.05%, YPD, serum bottles",7.9%
same,Glycerol yield,"S. cerevisiae JAY 270; 0.05%, YPD, serum bottles",0.027 ± 0.001 g/g
same,Glycerol yield vs. reference,"S. cerevisiae JAY 270; 0.05%, YPD, serum bottles",−19.6%
same,OD600,"S. cerevisiae JAY 270; 0.05%, YPD, serum bottles",3.01
same,Effect on yeast cell growth,S. cerevisiae JAY 270; 0.2%,reduced yeast cell growth
same,Biomass Yield,"S. cerevisiae JAY 270; 0.2% (w/v), YPD, serum bottles",0.042 + 0.006 g/g
same,Biomass yield % change vs. control,"S. cerevisiae JAY 270; 0.2% (w/v), YPD, serum bottles",−58* %
same,EtOH yield,"S. cerevisiae JAY 270; 0.2% (w/v), YPD, serum bottles",0.41 ± 0.01 g/g
same,EtOH yield % change vs. control,"S. cerevisiae JAY 270; 0.2% (w/v), YPD, serum bottles",10* %
same,Glycerol yield,"S. cerevisiae JAY 270; 0.2% (w/v), YPD, serum bottles",0.027 ± 0.009 g/g
same,Glycerol yield % change vs. control,"S. cerevisiae JAY 270; 0.2% (w/v), YPD, serum bottles",−22* %
same,Biomass yield vs. reference,"S. cerevisiae JAY 270; 0.2%, YPD, serum bottles",−58.2%
same,Effect on ethanol yield,"S. cerevisiae JAY 270; 0.2%, YPD, serum bottles",increased the ethanol yield significantly
same,Ethanol yield,"S. cerevisiae JAY 270; 0.2%, YPD, serum bottles",0.41 ± 0.01 g/g
same,Ethanol yield vs. reference,"S. cerevisiae JAY 270; 0.2%, YPD, serum bottles",10.3%
same,Glycerol yield,"S. cerevisiae JAY 270; 0.2%, YPD, serum bottles",0.027 ± 0.009 g/g
same,Glycerol yield vs. reference,"S. cerevisiae JAY 270; 0.2%, YPD, serum bottles",−21.9%
same,OD600,"S. cerevisiae JAY 270; 0.2%, YPD, serum bottles",1.52
same,Biomass Yield,S. cerevisiae ATCC 26603; S. cerevisiae ATCC 26603,0.059 ± 0.001 g/g
same,Biomass yield % change vs. control,S. cerevisiae ATCC 26603; S. cerevisiae ATCC 26603,−17* %
same,EtOH yield,S. cerevisiae ATCC 26603; S. cerevisiae ATCC 26603,0.495 ± 0.008 g/g
same,Glycerol yield,S. cerevisiae ATCC 26603; S. cerevisiae ATCC 26603,0.054 ± 0.005 g/g
same,Glycerol yield % change vs. control,S. cerevisiae ATCC 26603; S. cerevisiae ATCC 26603,−25* %
same,DCW,"S. cerevisiae ATCC 26603; S. cerevisiae ATCC 26603, YPD",1.13 mg
same,DCW Δ vs. ref,"S. cerevisiae ATCC 26603; S. cerevisiae ATCC 26603, YPD",64.2%
same,OD600,"S. cerevisiae ATCC 26603; S. cerevisiae ATCC 26603, YPD",0.77
same,OD600 Δ vs. ref,"S. cerevisiae ATCC 26603; S. cerevisiae ATCC 26603, YPD",54.8%
same,Biomass Yield,S. cerevisiae ATCC 26603; [2],0.059 + 0.001 g/g
same,Biomass yield Δ vs. ref,S. cerevisiae ATCC 26603; [2],−16.7%
same,Ethanol yield,S. cerevisiae ATCC 26603; [2],0.495 ± 0.008 g/g
same,Ethanol yield Δ vs. ref,S. cerevisiae ATCC 26603; [2],14.2%
same,Glycerol yield,S. cerevisiae ATCC 26603; [2],0.054 ± 0.005 g/g
same,Glycerol yield Δ vs. ref,S. cerevisiae ATCC 26603; [2],−24.74%
same,Biomass Yield,S. cerevisiae JAY 238; S. cerevisiae JAY 238,0.060 ± 0.000 g/g
same,Biomass yield % change vs. control,S. cerevisiae JAY 238; S. cerevisiae JAY 238,−12* %
same,EtOH yield,S. cerevisiae JAY 238; S. cerevisiae JAY 238,0.482 ± 0.017 g/g
same,Glycerol yield,S. cerevisiae JAY 238; S. cerevisiae JAY 238,0.023 ± 0.002 g/g
same,Glycerol yield % change vs. control,S. cerevisiae JAY 238; S. cerevisiae JAY 238,−49* %
same,Glycerol yield decrease from control,S. cerevisiae JAY 238; S. cerevisiae JAY 238,42%
same,DCW,"S. cerevisiae JAY 238; S. cerevisiae JAY 238, YPD",1.30 mg
same,DCW Δ vs. ref,"S. cerevisiae JAY 238; S. cerevisiae JAY 238, YPD",46.4%
same,OD600,"S. cerevisiae JAY 238; S. cerevisiae JAY 238, YPD",0.39
same,OD600 Δ vs. ref,"S. cerevisiae JAY 238; S. cerevisiae JAY 238, YPD",16.7%
same,Biomass Yield,S. cerevisiae JAY 238; [3],0.060 + 0.000 g/g
same,Biomass yield Δ vs. ref,S. cerevisiae JAY 238; [3],−11.8%
same,Ethanol yield,S. cerevisiae JAY 238; [3],0.482 ± 0.017 g/g
same,Ethanol yield Δ vs. ref,S. cerevisiae JAY 238; [3],14.7%
same,Glycerol yield,S. cerevisiae JAY 238; [3],0.020 ± 0.002 g/g
same,Glycerol yield Δ vs. ref,S. cerevisiae JAY 238; [3],−48.90%
same,Biomass Yield,S. cerevisiae JAY 240; S. cerevisiae JAY 240,0.055 ± 0.006 g/g
same,Biomass yield % change vs. control,S. cerevisiae JAY 240; S. cerevisiae JAY 240,−24* %
same,EtOH yield,S. cerevisiae JAY 240; S. cerevisiae JAY 240,0.464 ± 0.053 g/g
same,Glycerol yield,S. cerevisiae JAY 240; S. cerevisiae JAY 240,0.035 ± 0.000 g/g
same,Glycerol yield % change vs. control,S. cerevisiae JAY 240; S. cerevisiae JAY 240,−12* %
same,DCW,"S. cerevisiae JAY 240; S. cerevisiae JAY 240, YPD",1.55 mg
same,DCW Δ vs. ref,"S. cerevisiae JAY 240; S. cerevisiae JAY 240, YPD",50.8%
same,OD600,"S. cerevisiae JAY 240; S. cerevisiae JAY 240, YPD",1.12
same,OD600 Δ vs. ref,"S. cerevisiae JAY 240; S. cerevisiae JAY 240, YPD",45.0%
same,Biomass Yield,S. cerevisiae JAY 240; [4],0.055 + 0.006 g/g
same,Biomass yield Δ vs. ref,S. cerevisiae JAY 240; [4],−23.5%
same,Ethanol yield,S. cerevisiae JAY 240; [4],0.464 ± 0.053 g/g
same,Ethanol yield Δ vs. ref,S. cerevisiae JAY 240; [4],14.5%
same,Glycerol yield,S. cerevisiae JAY 240; [4],0.035 ± 0.000 g/g
same,Glycerol yield Δ vs. ref,S. cerevisiae JAY 240; [4],−11.63%
same,Biomass Yield,S. cerevisiae JAY 241; S. cerevisiae JAY 241,0.063 ± 0.004 g/g
same,Biomass yield % change vs. control,S. cerevisiae JAY 241; S. cerevisiae JAY 241,+8.6%
same,EtOH yield,S. cerevisiae JAY 241; S. cerevisiae JAY 241,0.435 ± 0.035 g/g
same,Glycerol yield,S. cerevisiae JAY 241; S. cerevisiae JAY 241,0.041 ± 0.004 g/g
same,Glycerol yield % change vs. control,S. cerevisiae JAY 241; S. cerevisiae JAY 241,−26* %
same,DCW Δ vs. ref,"S. cerevisiae JAY 241; S. cerevisiae JAY 241, YPD",58.5%
same,OD600,"S. cerevisiae JAY 241; S. cerevisiae JAY 241, YPD",1.00
same,OD600 Δ vs. ref,"S. cerevisiae JAY 241; S. cerevisiae JAY 241, YPD",50.1%
same,Biomass Yield,S. cerevisiae JAY 241; [5],0.063 + 0.004 g/g
same,Biomass yield Δ vs. ref,S. cerevisiae JAY 241; [5],8.6%
same,Ethanol yield,S. cerevisiae JAY 241; [5],0.435 ± 0.035 g/g
same,Ethanol yield Δ vs. ref,S. cerevisiae JAY 241; [5],13.8%
same,Glycerol yield,S. cerevisiae JAY 241; [5],0.041 ± 0.004 g/g
same,Glycerol yield Δ vs. ref,S. cerevisiae JAY 241; [5],−25.72%
